From patent publication US10485808B2, “Selective progesterone receptor modulators (SPRM) and stabilized estrogen level in patient” (BAYER PHARMA AKTIENGESELLSCHAFT, priority 2017, dated 2019)

Test system: healthy women of reproductive age
Assay: Study 15818: estradiol (E2) serum concentration after daily oral Compound 1
Assay type: in vivo, human
Experimental: Example 2: Circulating Endogenous Estrogen Concentrations in Healthy Women of Reproductive Age Receiving Compound 1 (Cp1)
Study protocol (N^o 15818): A randomized, double-blind, parallel-group, multi-center study to investigate the pharmacodynamics, pharmacokinetics and safety after daily oral administration of 4 different doses of Compound 1 in healthy women of reproductive age
Doses: 0.5 mg, 1 mg, 2 mg, or 4 mg once daily
Route of administration: Oral
Duration of treatment: 1×12 weeks (84 days)
• Age: 18-40 years • Smoking ≤10 cigarettes/day • Body mass index ≥18 and ≤32 kg/m^2 • Signed informed consent prior to study participation • No contraindication for intake of Compound 1 • Ovulation in pre-treatment cycle • Use of non-hormonal contraception during the study. Number of Subjects: see Table 1 for the number of subjects per Dosage Measurement of primary variable Estradiol: The estradiol (E2) serum concentration was assessed for each subject at the following Visit Days of the study, see FIG. 1 • Pre-treatment Day 9 (D9) corresponds to the period before start of Compound 1 uptake; the pre-treatment cycle starts on the first day of the subject waking up with menstrual bleeding with intensity more than spotting after screening examinations have shown that the subject is eligible for further participation. The pre-treatment period ends by the starting of next menstrual bleeding; • Treatment Day (D84) corresponds to last intake of Compound 1. The treatment phase started with the first and ended with the last intake of the study drug. The subjects have to start the intake of Compound 1 during the first week of the menstrual cycle after the pre-treatment cycle until the last Treatment Day (D84). • The follow-up cycle 1 started on the first day without study drug intake and will end in case of start of menstrual bleeding (i.e. when the subject is waking up with menstrual bleeding with intensity more than spotting). The first day of menstrual bleeding will define the start of follow-up cycle 2. Follow-up cycle 2 ended when the subjects report the next menstrual bleeding (i.e. first day of waking up with menstrual bleeding with intensity more than spotting).
During pre-treatment, end of treatment and at Follow-up Cycle 2, Estradiol (E2) serum concentrations are measured.
Eligible subjects were randomized to one of the treatment groups (0.5 mg, 1 mg, 2 mg, or 4 mg Compound 1). The treatment period consisted of 12 weeks (84 days) of daily tablet intake.

[1] = Cp1 0.5 mg once daily oral, Follow-up cycle2 D 9
[2] = Cp1 0.5 mg once daily oral, Pre-treatment D 9
[3] = Cp1 0.5 mg once daily oral, Treatment D 84
[4] = Cp1 1 mg once daily oral, Follow-up cycle2 D 9
[5] = Cp1 1 mg once daily oral, Pre-treatment D 9
[6] = Cp1 1 mg once daily oral, Treatment D 84
[7] = Cp1 2 mg once daily oral, Follow-up cycle2 D 9
[8] = Cp1 2 mg once daily oral, Pre-treatment D 9
[9] = Cp1 2 mg once daily oral, Treatment D 84
[10] = Cp1 4 mg once daily oral, Follow-up cycle2 D 9
[11] = Cp1 4 mg once daily oral, Pre-treatment D 9
[12] = Cp1 4 mg once daily oral, Treatment D 84

For `C[C@]12C[C@H](c3ccc(S(C)(=O)=O)cc3)C3=C4CCC(=O)C=C4CC[C@H]3[C@@H]1CC[C@@]2(O)C(F)(F)C(F)(F)F` [Compound 1, (11β,17β)-17-Hydroxy-11-[4-(methylsulphonyl)phenyl]-17-(pentafluoroethyl)estra-4,9-dien-3-one], the “Change of estradiol (E2) concentrations during treatment” value (0.5-4 mg once daily, 12 weeks) was “slight decrease”, the “Estradiol concentrations in serum, Max” value [1] was 262 pg/mL and the “Estradiol concentrations in serum, Mean” value [1] was 116.1 pg/mL. The “Estradiol concentrations in serum, Median” value [1] was 79.9 pg/mL, the “Estradiol concentrations in serum, Min” value [1] was 17 pg/mL and the “Estradiol concentrations in serum, Max” value [2] was 381 pg/mL. The “Estradiol concentrations in serum, Mean” value [2] was 138 pg/mL, the “Estradiol concentrations in serum, Median” value [2] was 104.5 pg/mL and the “Estradiol concentrations in serum, Min” value [2] was 14 pg/mL. For the same compound, the “Estradiol concentrations in serum, Max” value [3] was 423 pg/mL, the “Estradiol concentrations in serum, Mean” value [3] was 135.6 pg/mL and the “Estradiol concentrations in serum, Median” value [3] was “about 80 pg/mL”. The “Estradiol concentrations in serum, Min” value [3] was 23 pg/mL, the “Estradiol concentrations in serum, Median” value (Cp1 0.5 mg once daily oral, Treatment D 84, listed as Cp1) was 82 pg/mL and the “Estradiol concentrations in serum, Max” value [4] was 305 pg/mL. For the same compound, the “Estradiol concentrations in serum, Mean” value [4] was 143.8 pg/mL, the “Estradiol concentrations in serum, Median” value [4] was 119.2 pg/mL and the “Estradiol concentrations in serum, Min” value [4] was 39 pg/mL. For the same compound, the “Estradiol concentrations in serum, Max” value [5] was 311 pg/mL, the “Estradiol concentrations in serum, Mean” value [5] was 143.3 pg/mL and the “Estradiol concentrations in serum, Median” value [5] was 92.3 pg/mL. The “Estradiol concentrations in serum, Min” value [5] was 39 pg/mL, the “Estradiol concentrations in serum, Max” value [6] was 276 pg/mL and the “Estradiol concentrations in serum, Mean” value [6] was 119.4 pg/mL. For the same compound, the “Estradiol concentrations in serum, Median” value [6] was “about 80 pg/mL”, the “Estradiol concentrations in serum, Min” value [6] was 42 pg/mL and the “Estradiol concentrations in serum, Median” value (Cp1 1 mg once daily oral, Treatment D 84, listed as Cp1) was 81.5 pg/mL. For the same compound, the “Estradiol concentrations in serum, Max” value [7] was 395 pg/mL, the “Estradiol concentrations in serum, Mean” value [7] was 123.9 pg/mL and the “Estradiol concentrations in serum, Median” value [7] was 80.9 pg/mL. For the same compound, the “Estradiol concentrations in serum, Min” value [7] was 33 pg/mL, the “Estradiol concentrations in serum, Max” value [8] was 308 pg/mL and the “Estradiol concentrations in serum, Mean” value [8] was 113.5 pg/mL. The “Estradiol concentrations in serum, Median” value [8] was 82.2 pg/mL, the “Estradiol concentrations in serum, Min” value [8] was 33 pg/mL and the “Estradiol concentrations in serum, Max” value [9] was 330 pg/mL. The “Estradiol concentrations in serum, Mean” value [9] was 91.2 pg/mL, the “Estradiol concentrations in serum, Median” value [9] was “about 80 pg/mL” and the “Estradiol concentrations in serum, Min” value [9] was 34 pg/mL. The “Estradiol concentrations in serum, Median” value (Cp1 2 mg once daily oral, Treatment D 84, listed as Cp1) was 78.5 pg/mL, the “Estradiol concentrations in serum, Max” value [10] was 279 pg/mL and the “Estradiol concentrations in serum, Mean” value [10] was 109.9 pg/mL. The “Estradiol concentrations in serum, Median” value [10] was 88.7 pg/mL, the “Estradiol concentrations in serum, Min” value [10] was 41 pg/mL and the “Estradiol concentrations in serum, Max” value [11] was 200 pg/mL. The “Estradiol concentrations in serum, Mean” value [11] was 126.4 pg/mL, the “Estradiol concentrations in serum, Median” value [11] was 122.9 pg/mL and the “Estradiol concentrations in serum, Min” value [11] was 44 pg/mL. For the same compound, the “Estradiol concentrations in serum, Max” value [12] was 81 pg/mL, the “Estradiol concentrations in serum, Mean” value [12] was 53.9 pg/mL and the “Estradiol concentrations in serum, Median” value [12] was “about 50 pg/mL”. The “Estradiol concentrations in serum, Min” value [12] was 39 pg/mL, the “Estradiol concentrations in serum, Median” value (Cp1 4 mg once daily oral, Treatment D 84, listed as Cp1) was 50.5 pg/mL and the “Reversibility of estradiol (E2) decrease after end of treatment” value (pre-treatment vs follow-up Cycle 2) was “completely reversible”.
